Laboratory results reported in PubChem BioAssay (NCI).
“And” between values parts separate entries of the source, which are not always exact repeats. Identical values can stand only once.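 1) Cells in 96-well plates. 2) Compound, 48 h, 5 concentrations. 3) Linear interpolation between surrounding doses. 4) Unreached endpoint = highest concentration. GI50: concentration for 50% inhibition of growth. TGI marks complete inhibition of growth.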

Key:
Assay in all cases: NCI anticancer screen, dose series, 48 h
IGROV1 ovarian = tested on: IGROV1 ovarian
KM12 colon = tested on: KM12 colon
OVCAR-4 ovarian = tested on: OVCAR-4 ovarian
OVCAR-8 ovarian = tested on: OVCAR-8 ovarian
RXF 393 renal = tested on: RXF 393 renal
SF-295 CNS = tested on: SF-295 CNS
SK-MEL-2 melanoma = tested on: SK-MEL-2 melanoma
SNB-19 CNS = tested on: SNB-19 CNS
SNB-75 CNS = tested on: SNB-75 CNS

In the case of `O=C1/C(=C/c2ccccc2)CN(C(=O)/C=C/c2ccccc2)C/C1=C\c1ccccc1`, the TGI (IGROV1 ovarian) is reported as 22.2 µM, the TGI (KM12 colon) is reported as 12.2 µM and the TGI (OVCAR-4 ovarian) is reported as 24.7 µM. It also gave a TGI (OVCAR-8 ovarian) of 9.78 µM, a TGI (RXF 393 renal) of 30.4 µM and a TGI (SF-295 CNS) of 17 µM. The TGI (SK-MEL-2 melanoma) was 52 µM, the TGI (SNB-19 CNS) was 25.9 µM and the TGI (SNB-75 CNS) was 60.5 µM.
With `Cc1ncc2c(n1)CCC1=C2OS(=O)(=O)CC1N(C)C` (configuration not stated) the TGI (IGROV1 ovarian) was > 100 µM, the TGI (KM12 colon) was > 100 µM and the TGI (OVCAR-4 ovarian) was > 100 µM. For the same molecule, the TGI (OVCAR-8 ovarian) was > 100 µM, the TGI (SNB-19 CNS) was > 100 µM and the TGI (SNB-75 CNS) was > 100 µM.
In the case of `COc1ccc(-c2cc(-c3ccco3)c(C#N)c(=O)n2C2OC(COC(C)=O)C(OC(C)=O)C(OC(C)=O)C2OC(C)=O)cc1` (configuration not stated), the GI50 (IGROV1 ovarian) is reported as > 100 µM and 12.9 µM, the TGI (IGROV1 ovarian) is reported as > 100 µM and 94.4 µM and the TGI (KM12 colon) is reported as > 100 µM. For the same molecule, the TGI (OVCAR-4 ovarian) was > 100 µM, the GI50 (OVCAR-8 ovarian) was > 100 µM and 10.9 µM and the TGI (OVCAR-8 ovarian) was > 100 µM and 40.4 µM. For the same molecule, the GI50 (RXF 393 renal) was > 100 µM and 21.8 µM, the TGI (RXF 393 renal) was > 100 µM and 66.2 µM and the GI50 (SF-295 CNS) was > 100 µM and 25.7 µM. The TGI (SF-295 CNS) was > 100 µM, the GI50 (SK-MEL-2 melanoma) was > 100 µM and 14.5 µM and the TGI (SK-MEL-2 melanoma) was > 100 µM and 50.8 µM. For the same molecule, the GI50 (SNB-19 CNS) was > 100 µM and 42.8 µM, the TGI (SNB-19 CNS) was > 100 µM and the TGI (SNB-75 CNS) was > 100 µM.
With `CCOC(=O)C(c1ccsc1)P(=O)(OCC)OCC` (configuration not stated) the TGI (KM12 colon) was 28.4 µM, the TGI (OVCAR-4 ovarian) was > 100 µM and the TGI (OVCAR-8 ovarian) was 43.3 µM. For the same molecule, the TGI (RXF 393 renal) was 28.9 µM, the TGI (SF-295 CNS) was 34 µM and the TGI (SK-MEL-2 melanoma) was 39.9 µM. The TGI (SNB-19 CNS) was 44.4 µM and the TGI (SNB-75 CNS) was 43.5 µM.
For `CC(C)CC1CC2C(=O)N(c3ccccc3)C(=O)C2c2[nH]c3ccccc3c21` (configuration not stated), the TGI (IGROV1 ovarian) was 61.9 µM, the TGI (KM12 colon) was > 100 µM and the TGI (OVCAR-4 ovarian) was > 38.5 µM. For the same molecule, the TGI (OVCAR-8 ovarian) was 51.6 µM, the TGI (RXF 393 renal) was 44.9 µM and the TGI (SF-295 CNS) was > 94.4 µM. The TGI (SK-MEL-2 melanoma) was 59.8 µM, the TGI (SNB-19 CNS) was > 100 µM and the TGI (SNB-75 CNS) was 30.6 µM.
In the case of `C=CCN=C1NC(=O)C(CC(=O)Nc2ccc([N+](=O)[O-])cc2[N+](=O)[O-])S1` (configuration not stated), the TGI (IGROV1 ovarian) is reported as > 100 µM, the TGI (KM12 colon) is reported as > 100 µM and the TGI (OVCAR-4 ovarian) is reported as > 100 µM. The TGI (OVCAR-8 ovarian) was > 100 µM, the TGI (RXF 393 renal) was > 100 µM and the TGI (SF-295 CNS) was > 100 µM. The TGI (SK-MEL-2 melanoma) was > 100 µM, the TGI (SNB-19 CNS) was > 100 µM and the TGI (SNB-75 CNS) was > 100 µM.
`COC(=O)N1C=CC2=C(C)C3Nc4ccccc4C3C(C)=C2C1` (configuration not stated) was tested, and the TGI (IGROV1 ovarian) was > 100 µM, the TGI (OVCAR-4 ovarian) was 11.3 µM and the TGI (OVCAR-8 ovarian) was 7.5 µM. The TGI (SF-295 CNS) was 17.9 µM, the TGI (SK-MEL-2 melanoma) was 2.95 µM and the TGI (SNB-19 CNS) was > 100 µM. It also gave a TGI (SNB-75 CNS) of 9.54 µM.
With `CC1(C)CCOC(Sc2ccccc2)C1` (configuration not stated) the TGI (IGROV1 ovarian) was > 100 µM, the TGI (KM12 colon) was > 100 µM and the TGI (OVCAR-4 ovarian) was > 100 µM. For the same molecule, the TGI (OVCAR-8 ovarian) was > 100 µM, the TGI (RXF 393 renal) was > 100 µM and the TGI (SF-295 CNS) was > 100 µM. For the same molecule, the TGI (SK-MEL-2 melanoma) was 69.9 µM, the TGI (SNB-19 CNS) was > 100 µM and the TGI (SNB-75 CNS) was > 100 µM.
